# Data taken from the METLIN SMRT retention time set (Domingo-Almenara et al. 2019).
# Test: gradient 5% acetonitrile 3 min, to 50% in 2 min, to 85% in 15 min, held 3 min, 100 µL/min
# Conditions: column: Zorbax Extend-C18 2.1 x 50 mm; eluents: water / acetonitrile, 0.1% formic acid
# Outline: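 Pure standards were analyzed in mixtures of ~100 molecules using HPLC coupled to a quadrupole time-of-flight mass spectrometer, in both positive and negative ionization mode. Separation used a Zorbax Extend-C18 column (2.1 × 50 mm, 1.8 μm) at 100 μL/min, with water and acetonitrile each containing 0.1% formic acid. Dead and dwell volumes were 40 μL and 900 μL, and data were collected over 3 months. Retention time was read from computationally picked adduct peaks, each inspected manually.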
row,Compound,RP-LC retention time
1,CC(C)Cn1c(=O)c(N2CCN(C(=O)Nc3ccccc3)CC2)nc2ccncc21,577 s
2,COc1ccc(NC(=O)Cn2c(C)cc(-c3nnc(C4CC4)o3)c2C)cc1Cl,856 s
3,CCOC(=O)c1[nH]c(C)c(CCC(=O)N2CCC(C(=O)NCCCN3CCCC3=O)CC2)c1C,626 s
4,COc1ccc(OC)c(NC(=O)c2cc3c(=O)n(CC(C)C)c4ccccc4n3n2)c1,1240 s
5,Cc1oc2ccn(Cc3ccc(F)cc3)c(=O)c2c1C(=O)NCC1CC1,988 s
6,CC(C)N(CC#CCNS(=O)(=O)c1ccc(Cl)cc1)C(C)C,568 s
7,CCOC(=O)c1ccc2[nH]c(-c3ccc(S(=O)(=O)F)cc3)cc(=O)c2c1,858 s
8,Cc1ccccc1C(=O)Nc1nc(-c2ccc3c(c2)N(C)C(=O)CO3)cs1,939 s
9,CCNC(=O)[C@H]1O[C@@H](n2cnc3c(N)nc(NCCc4ccc(CCC(=O)O)cc4)nc32)C(O)[C@H]1O (stereo partly drawn),503 s
10,O=C(c1cnn2c(-c3ccc4c(c3)OCO4)ccnc12)N1CCN(c2ccc(F)cc2)CC1,890 s
11,O=C(Cc1ccc(F)cc1)N1CCC2(CC1)N=C(c1ccc(Cl)cc1)NO2,889 s
12,COCCNC(=O)C1CCCN(c2nn3cc(-c4ccc(F)cc4)nc3s2)C1 (stereo not drawn),756 s
13,O=C(c1ccc(F)cc1)N1CCC(C(=O)N2CCc3ccccc32)CC1,822 s
14,CCCn1c(=O)c(N2CCN(C(=O)C3CC3)CC2)nc2ccccc21,912 s
15,O=C(Cc1csc(-n2cccc2)n1)N1CCN(c2ccccn2)CC1,623 s
16,Cc1cc(C)n(Cc2nc(-c3ccc(NC(=O)CC(C)(C)C)cc3)oc2C)n1,939 s
17,Cn1c(N2CCCN(C(=O)c3ccc(Br)o3)CC2)cc(=O)n(C)c1=O,653 s
18,CN(C(=O)Cn1cnc2c(-c3ccccc3)csc2c1=O)c1ccccc1,911 s
19,Cc1ccc(S(=O)(=O)N2CCC(CCC(=O)NCc3cccc(C)c3)CC2)cc1,956 s
20,Cn1cnc2c(F)c(Nc3ccc(Br)cc3Cl)c(C(=O)NOCCO)cc21,789 s
21,CC(=O)Nc1cccc(-c2nc(-c3ccc4ncn(C(C)C)c4c3)no2)c1,660 s
22,CCCn1c(=O)c2c(C(=O)N3CCN(c4ccc(Cl)cc4)CC3)cc(=O)n(CCC)c2n(C)c1=O,1210 s

row,Compound,RP-LC retention time
1,O=C1COc2cc(Cl)ccc2N1Cc1nc(-c2ccc(F)c(Br)c2)no1,1210 s
2,COc1ccc(-c2noc(-c3nc(-c4ccccc4OC)no3)n2)cc1OC,1070 s
3,Cn1nc(-c2nc(C3CC3)no2)c2c1CCN(C(=O)Nc1ccccc1Cl)C2,871 s
4,O=S(=O)(CCc1noc(C2COc3ccccc3O2)n1)c1ccccc1 (stereo not drawn),927 s
5,Cc1noc(C)c1S(=O)(=O)N1CCC2(CC1)N(c1ccccc1)C(=O)CS2=O (stereo not drawn),708 s
6,Cc1nc(C)c(C(=O)Nc2ccccc2NC(=O)c2ccccn2)s1,691 s
7,CC1=Nc2ccccc2N=C(NC(=O)Nc2cccc(Cl)c2)C1c1ccc(Cl)cc1 (stereo not drawn),1170 s
8,CCCCCCCNC(=O)C1CCCN(c2ncc(-c3ccc(F)cc3)cn2)C1 (stereo not drawn),1260 s
9,CCc1ccc(C(C)NS(=O)(=O)c2c(C)c(-c3nnc(C4CCC4)o3)n(C)c2C)cc1 (stereo not drawn),1060 s
10,Cc1oc2ccc(NS(=O)(=O)c3ccc(F)cc3)cc2c1C(=O)O,742 s
11,COc1ccc(N2COc3ccc4c(c3C2)O/C(=C\c2ccco2)C4=O)cc1,700 s
12,NS(=O)(=O)c1ccc(CCNS(=O)(=O)c2ccccc2-c2nc(-c3ccccc3)no2)cc1,886 s
13,CCN1CCn2cc(S(=O)(=O)Nc3cc(C)ccc3F)cc2C1=O,751 s
14,CCOc1cccc2cc(C(=O)Nc3ccccc3S(C)(=O)=O)oc12,931 s
15,O=C(NCCCNC(=O)NC1CCCCC1)NC1CCCCC1,673 s
16,Cc1cnc(CC2CCN(C(=O)N(C)C)C2)n1Cc1ccccc1 (stereo not drawn),609 s
17,COc1ccc(S(=O)(=O)N2C[C@@H](F)C[C@H]2C(=O)N2CCc3ccccc3C2)cc1,877 s
18,FC(F)(F)c1ccc(C2CNCCO2)cc1 (stereo not drawn),570 s
19,COc1ccc(-c2nc(N3CCCCC3)c3ccccc3n2)cc1,777 s
20,O=C(Nc1ccccc1-c1nc2ccccc2[nH]1)c1cc2ccccc2o1,1080 s
21,COC(=O)C1=CN(c2cc(OC)cc(OC)c2)c2ccccc2S1(=O)=O,848 s
22,COc1cc(OC)cc(-c2noc(-c3nn(-c4cccc(F)c4)ccc3=O)n2)c1,881 s

row,Compound,RP-LC retention time
1,CCc1cc(N2CCN(C(=O)COc3ccc(F)cc3)CC2)nc2nncn12,566 s
2,Cc1cc2c(c(=O)n(-c3ccc(F)cc3)c(=O)n2CC(=O)Nc2ccc(C(C)C)cc2)n1C,921 s
3,CC(=O)N1c2ccc(S(=O)(=O)N3CCCCCC3)cc2CC1C(=O)NCCc1ccccc1 (stereo not drawn),918 s
4,CCCOc1nc2ccccc2nc1N1CCCC(C(=O)N2CCN(c3ccccc3F)CC2)C1 (stereo not drawn),1380 s
5,CCCN1CCN(C(=O)CN2CCN(C(=O)Nc3ccc(Br)cc3)CC2=O)CC1,597 s
6,CC(NC(=O)CSc1nnc2c3ccccc3nc(-c3ccco3)n12)c1nc2ccccc2[nH]1 (stereo not drawn),638 s
7,c1ccc(-c2nc(C3CC3)no2)c(OC2CCNC2)c1 (stereo not drawn),588 s
8,CC(C)NC(=O)Cn1nc2c3cc(-c4ccc(Cl)cc4)nn3ccn2c1=O,823 s
9,CCn1c(=O)c(C(=O)NCc2cccc(OC)c2)nc2cccnc21,780 s
10,O=S(=O)(c1ccc(F)cc1F)N1CC(COc2ccncc2)C2(CCOCC2)C1 (stereo not drawn),613 s
11,O=C(c1ccsc1)N1CCCC1Cc1noc(-c2cnccn2)n1 (stereo not drawn),707 s
12,Cc1nn(C(C)C(=O)NCCCN2CCOCC2)c(=O)c2c(C)n(-c3ccccc3)nc12 (stereo not drawn),615 s
13,O=S(=O)(c1cc(-c2cc(C(F)(F)F)on2)cs1)N1CCN(C2CCCCC2)CC1,775 s
14,NS(=O)(=O)c1ccc(CCNCc2ccc(-c3ccccc3F)o2)cc1,643 s
15,COc1ccccc1N1CCN(C(=O)C2CC(=O)N(c3ccc4oc(C)nc4c3)C2)CC1 (stereo not drawn),693 s
16,CCOC(=O)c1ccc(NS(=O)(=O)c2ccc(-c3c(C)noc3C)cc2)cc1,941 s
17,Cc1cc(F)ccc1NC(=O)CN1C(=O)CCc2cc(S(=O)(=O)N3CCCCC3C)ccc21 (stereo not drawn),920 s
18,O=c1c2cc(-c3ccccc3)nn2ccn1CC(O)c1ccccc1 (stereo not drawn),846 s
19,O=C(NCc1ccccc1)C1=C2CCCN2c2ccccc2S1(=O)=O,810 s
20,O=[N+]([O-])c1ccc(CSc2ncnc3c2ncn3[C@@H]2O[C@H](CO)[C@H](O)C2O)cc1 (stereo partly drawn),759 s
21,CCOc1ccc(-c2cc(C(=O)N3CCN(c4ccccn4)CC3)c3ccccc3n2)cc1,726 s
22,CCOC(=O)CCC(=O)Nc1cccc2ccc(OC)nc12,904 s

row,Compound,RP-LC retention time
1,CC(C)c1ccc(OCC(=O)Nc2cnn(C)c(=O)c2N2CCOCC2)cc1,952 s
2,CCn1ccnc1N1CCN(C(=O)c2ccccc2C(F)(F)F)CC1,555 s
3,Cc1c(C(=O)O)nnn1-c1ccc2noc(-c3ccccc3)c2c1,775 s
4,c1ccc(SCc2nnc3sc(-c4cnccn4)nn23)cc1,774 s
5,CC(C)(C)OC(=O)Nc1cnc(C(=O)O)cn1,625 s
6,COc1ccc(-c2nnc(-c3ccccc3)o2)cc1S(=O)(=O)NCC(=O)O,703 s
7,CCn1c(=O)c(NCc2ccccc2Cl)nc2ccncc21,659 s
8,N#Cc1ccc(C(=O)Nc2cccc(-c3nnc4n3CCCC4)c2)cc1,665 s
9,COc1nn(C)cc1C(=O)Nc1nnc(-c2sc(C)nc2C)o1,598 s
10,CCN1C(=O)Cc2ccccc2C1C(=O)NCc1ccc2c(c1)OCO2 (stereo not drawn),727 s
11,O=C(NCC1CC(=O)N(c2ccc3c(c2)OCO3)C1)C1CC1 (stereo not drawn),606 s
12,CCC(C)NC(=O)NC1CCN(c2nc3cccnc3n(Cc3ccc(C)cc3)c2=O)CC1 (stereo not drawn),1040 s
13,Fc1ccc(-c2nc(-c3ccc(-n4ccnc4)nc3)no2)cc1F,871 s
14,O=C1NC2(CCN(C(=O)c3ccccc3)CC2)Nc2cc(Cl)ccc21,729 s
15,O=C(NC1CCCC1)C1CC(=O)N(c2ccc3c(c2)CCN3C(=O)C2CCC2)C1 (stereo not drawn),760 s
16,O=C(Cn1nc(Cc2ccncc2)c2ccccc2c1=O)N1CCN(C(=O)c2ccco2)CC1,582 s
17,CCCNC(=O)C1CCN(c2ccc(SCC(=O)Nc3ccc(C(=O)OCC)cc3)nn2)CC1,677 s
18,CCOC(=O)C(NC(=O)C1CCCN1C(=O)OCc1ccccc1)C(=O)OCC (stereo not drawn),855 s
19,COc1ccc(C2=C(C)C(Nc3ccccc3OC)=NS2(=O)=O)cc1,925 s
20,O=C1CCc2cc(NS(=O)(=O)/C=C/c3ccccc3)ccc2N1,681 s
21,CCn1cnnc1C1CCCCN1C(=O)CCc1c[nH]c2ccccc12 (stereo not drawn),697 s
22,O=C(NCC1Cn2cccc2C(=O)N1Cc1ccccc1)NC1CCCC1 (stereo not drawn),734 s
